ChEMBL document CHEMBL5233269, “Anticancer potential of spirocompounds in medicinal chemistry: A pentennial expedition” (Eur J Med Chem, 2021)
pEC50, pIC50: −log10 of the molar value. Values belong to the compound of their own block, whether it stands above or below them.

How the values were obtained:
HeLa [1] = assay: Anticancer activity against human HeLa cells assessed as inhibition of cell growth by MTT assay; assay type: functional, cell-based
A549 [2] = assay: Anticancer activity against human A549 cells assessed as inhibition of cell growth by MTT assay; assay type: functional, cell-based
MCF7 [3] = assay: Anticancer activity against human MCF7 cells assessed as inhibition of cell growth by MTT assay; assay type: functional, cell-based
MCF7 [4] = assay: Antiproliferative activity against human MCF7 cells assessed as inhibition of cell viability; assay type: functional, cell-based
K562 = assay: Antiproliferative activity against human K562 cells assessed as inhibition of cell viability; assay type: functional, cell-based
L02 = assay: Antiproliferative activity against human L02 cells by MTT assay; assay type: functional, cell-based
HepG2 [5] = assay: Antiproliferative activity against human HepG2 cells by MTT assay; assay type: functional, cell-based
MCF7 [6] = assay: Anticancer activity against human MCF7 cells at 10 uM by MTT assay relative to control; assay type: functional
MCF7 [7] = assay: Anticancer activity against human MCF7 cells assessed as reduction of cell growth; assay type: functional, cell-based
A-431 = assay: Anticancer activity against human A-431 cells; assay type: functional, cell-based
[8] = Anticancer activity against human MCF-10A cells assessed as reduction of cell growth; assay type: toxicity, cell-based
PC-3 = assay: Anticancer activity against human PC-3 cells assessed as reduction of cell growth; assay type: functional, cell-based
MCF7 [9] = assay: Anticancer activity against human MCF7 cells measured after 48 hrs by MTT assay; assay type: functional, cell-based; details: MCF7, 48 h
Ishikawa = assay: Anticancer activity against human Ishikawa cells measured after 48 hrs by MTT assay; assay type: functional, cell-based
MDA-MB-231 = assay: Anticancer activity against human MDA-MB-231 cells measured after 48 hrs by MTT assay; assay type: functional, cell-based; details: MDA-MB-231, 48 h
LNCaP = assay: Anticancer activity against human LNCaP cells measured after 48 hrs by MTT assay; assay type: functional, cell-based
DU-145 = assay: Anticancer activity against human DU-145 cells measured after 48 hrs by MTT assay; assay type: functional, cell-based; details: DU-145, 48 h
HT-29 = assay: Antiproliferative activity against human HT-29 cells measured after 48 hrs by MTT assay; assay type: functional, cell-based; details: HT-29, 48 h
MCF7 [10] = assay: Antiproliferative activity against human MCF7 cells measured after 48 hrs by MTT assay; assay type: functional, cell-based; details: MCF7, 48 h
HepG2 [11] = assay: Antiproliferative activity against human HepG2 cells measured after 48 hrs by MTT assay; assay type: functional, cell-based; details: HepG2, 48 h
HL-60 = assay: Antiproliferative activity against human HL-60 cells measured after 48 hrs by MTT assay; assay type: functional, cell-based; details: HL-60, 48 h
A549 [12] = assay: Antiproliferative activity against human A549 cells measured after 48 hrs by MTT assay; assay type: functional, cell-based; details: A549, 48 h
[13] = Antiproliferative activity against human […] cells measured after 48 hrs by MTT assay; assay type: functional, cell-based
SW480 = assay: Antiproliferative activity against human SW480 cells measured after 48 hrs by MTT assay; assay type: functional, cell-based; details: SW480, 48 h
HeLa [14] = assay: Antiproliferative activity against human HeLa cells measured after 48 hrs by MTT assay; assay type: functional, cell-based
HCT-116 = assay: Cytotoxicity against human HCT-116 cells incubated overnight by MTT assay; assay type: functional, cell-based
HepG2 [15] = assay: Cytotoxicity against human HepG2 cells incubated overnight by MTT assay; assay type: functional, cell-based
MCF7 [16] = assay: Inhibition of cell proliferation in human MCF7 cells; assay type: functional, cell-based
[17] = Inhibition of cell proliferation in human MCF-10A cells at 50 uM by MTT colorimetric cell viability assay relative to control; assay type: toxicity, cell-based
Sarcoma-180 = assay: Antitumor activity against mouse Sarcoma-180 xenografted in mouse model assessed tumor growth inhibition relative to control; assay type: functional; set-up: scale not given: the % may be the effect or the level left
[18] = target: T1, Amine oxidase [flavin-containing] A (Rattus norvegicus, UniProt P21396); assay: Inhibition of rat brain MAO-A relative to control; assay type: tissue-based
T1 sequence (P21396 whole entry): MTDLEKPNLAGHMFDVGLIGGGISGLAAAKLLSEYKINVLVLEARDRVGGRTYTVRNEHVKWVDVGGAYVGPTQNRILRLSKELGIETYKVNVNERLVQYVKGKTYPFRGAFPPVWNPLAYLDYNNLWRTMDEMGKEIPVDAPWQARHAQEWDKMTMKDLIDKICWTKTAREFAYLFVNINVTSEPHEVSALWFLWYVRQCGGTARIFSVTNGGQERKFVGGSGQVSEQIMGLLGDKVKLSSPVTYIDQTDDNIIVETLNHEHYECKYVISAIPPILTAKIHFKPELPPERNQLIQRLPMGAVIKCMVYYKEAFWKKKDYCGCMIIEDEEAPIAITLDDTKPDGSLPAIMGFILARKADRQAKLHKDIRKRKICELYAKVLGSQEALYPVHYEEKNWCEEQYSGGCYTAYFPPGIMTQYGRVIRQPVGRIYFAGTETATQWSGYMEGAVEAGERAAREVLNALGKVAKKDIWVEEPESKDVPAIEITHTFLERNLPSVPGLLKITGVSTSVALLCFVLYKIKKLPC

Ehrlich = assay: Antitumor activity against mouse Ehrlich ascites carcinoma xenografted in mouse model assessed tumor growth inhibition relative to control; assay type: functional; set-up: scale not given: the % may be the effect or the level left
HepG2 [19] = assay: Anticancer activity against human HepG2 cells at 200 microg/ml measured after 48 hrs relative to control; assay type: functional
4T1 = assay: Anticancer activity against mouse 4T1 cells at 200 microg/ml measured after 48 hrs relative to control; assay type: functional

SMILES: CC(=O)N1C(=O)C2(C(C#N)=C(N)Oc3n[nH]c(C)c32)c2ccccc21 (centres undefined)
inhibition at 10 µM (MCF7 [6]): 26.5%

SMILES: CC(C)CCC[C@@H](C)[C@@H]1CCC2C3C[C@@]4(N=C5C=CC=CN5/C4=N\c4ccccc4)C4C[C@@H](Cl)CC[C@]4(C)C3CC[C@@]21C (some centres undefined)
pIC50 (HT-29): 5.66
pIC50 (MCF7 [10]): 5.41
pIC50 (HepG2 [11]): 5.27
pIC50 (HL-60): 5.58
pIC50 (A549 [12]): 5.51
pIC50 [13]: 5.50
pIC50 (SW480): 5.47
pIC50 (HeLa [14]): 5.27

SMILES: O=C(/C=C/c1cccc(Br)c1)[C@H]1[C@H](c2cccc(Br)c2)C2CSCN2[C@]12C(=O)Nc1cc(Br)c(Br)cc12 (some centres undefined)
pIC50 (HCT-116): 5.80
pIC50 (HepG2 [15]): 6.05

SMILES: CC(=O)O[C@H]1CC[C@]2(C)C3CC[C@@]4(C)C(CC[C@H]4[C@H](C)CCCC(C)C)C3C[C@@]3(N=C4C=CC=CN4/C3=N\c3ccccc3)C2C1 (some centres undefined)
pIC50 (HT-29): 5.30
pIC50 (MCF7 [10]): 5.37
pIC50 (HepG2 [11]): 5.61
pIC50 (HL-60): 5.35
pIC50 (A549 [12]): 5.27
pIC50 [13]: 5.27
pIC50 (SW480): 5.30
pIC50 (HeLa [14]): 5.45

SMILES: O=C1Nc2ccc(Br)cc2C12c1c([nH]c(=O)[nH]c1=O)N(c1ccc(N3CCOCC3)c(F)c1)c1[nH]c(=O)[nH]c(=O)c12
pIC50 (HeLa [1]): 5.17
pIC50 (A549 [2]): 4.59
pIC50 (MCF7 [3]): 4.64

SMILES: CCOC(=O)c1[nH]nc2c1C1(C(=O)N(C(C)=O)c3ccccc31)C(C#N)=C(N)O2 (centres undefined)
inhibition at 10 µM (MCF7 [6]): 15.7%

SMILES: CCn1c(SCC(=O)Nc2ccccc2)nc2c(c1=O)C1(CCCCC1)Cc1ccccc1-2
Activity (Sarcoma-180): 55%
inhibition (INH) [18]: 32%
Activity (Ehrlich): 75%

SMILES: Cc1ccc2c(c1)[C@]1(C(=O)N2)[C@@H](C(=O)c2ccccc2)[C@]2(C(=O)Nc3ccccc32)[C@@H]2c3ccccc3CCN21
inhibition at 200 µg/mL (HepG2 [19]): 66.7%
inhibition at 200 µg/mL (4T1): 20.8%

SMILES: CC(C)CCC[C@@H](C)[C@@H]1CCC2C3C[C@@]4(N=C5C=CC=CN5/C4=N\c4ccccc4)C4CCCC[C@]4(C)C3CC[C@@]21C (some centres undefined)
pIC50 (HT-29): 5.51
pIC50 (MCF7 [10]): 5.32
pIC50 (HepG2 [11]): 5.37
pIC50 (HL-60): 5.29
pIC50 (A549 [12]): 5.58
pIC50 [13]: 5.27
pIC50 (SW480): 5.28
pIC50 (HeLa [14]): 5.42

More lines, main results first:

pIC50 (HeLa [1]): 4.74
pIC50 (A549 [2]): 4.65
pIC50 (MCF7 [3]): 5.02
SMILES: O=C1Nc2ccc(Br)cc2C12c1c(c3ccccc3oc1=O)N(c1ccc(N3CCOCC3)c(F)c1)c1c2c(=O)oc2ccccc12

pIC50 (MCF7 [4]): 4.71
pIC50 (K562): 4.78
SMILES: O=C1/C(=C/c2c(Cl)cccc2Cl)CCCC12[C@@H]1CCCN1[C@@]1(C(=O)Nc3ccccc31)[C@H]2c1c(Cl)cccc1Cl (some centres undefined)

pIC50 (HepG2 [5]): 5.52
SMILES: O=C1C(=O)C2C(N=C3N=NNN3C23C(=O)Nc2c(Cl)cccc23)c2ccccc21 (centres undefined)
pIC50 (L02): 4.31

pIC50 (MCF7 [4]): 4.81
pIC50 (K562): 4.80
SMILES: O=C1/C(=C/c2ccc(Br)cc2)CCCC12[C@@H]1CCCN1[C@@]1(C(=O)Nc3ccccc31)[C@H]2c1ccc(Br)cc1 (some centres undefined)

pIC50 (MCF7 [7]): 5.01
pIC50 (A-431): 4.37
pIC50 (PC-3): 4.14
SMILES: CC1(C)CC(=O)C2C(C1)N(c1ccccn1)C(=O)C21c2ccccc2NC2C(=O)CC(C)(C)CC21 (centres undefined)
pIC50 [8]: 4.46

pIC50 (MCF7 [9]): 5.99
pIC50 (MDA-MB-231): 5.52
pIC50 (LNCaP): 5.96
pIC50 (DU-145): 5.67
SMILES: O=C1NC2(C3=C(C(=O)C4C=CC=CC4C3=O)c3ccccc32)c2cc(Cl)c(Cl)cc21 (centres undefined)
pIC50 (Ishikawa): 6.12

pIC50 (MCF7 [7]): 5.11
pIC50 (A-431): 4.28
pIC50 (PC-3): 4.07
SMILES: CC1(C)CC(=O)C2C(C1)N(c1ccccc1F)C(=O)C21c2ccccc2NC2C(=O)CC(C)(C)CC21 (centres undefined)
pIC50 [8]: 4.44

pEC50 (MCF7 [16]): 5.45
SMILES: O=C1Nc2ccccc2C12CCNC2c1ccccc1 (centres undefined)
inhibition at 50 µM [17]: 0.08%

pIC50 (MCF7 [7]): 5.02
pIC50 (A-431): 4.25
pIC50 (PC-3): 4.06
SMILES: COc1cccc(N2C(=O)C3(c4ccccc4NC4C(=O)CC(C)(C)CC43)C3C(=O)CC(C)(C)CC32)c1 (centres undefined)
pIC50 [8]: 4.32

pIC50 (MCF7 [9]): 6.09
pIC50 (MDA-MB-231): 5.16
pIC50 (LNCaP): 6.17
pIC50 (DU-145): 5.66
SMILES: O=C1NC2(C3=C(C(=O)C4C=CC=CC4C3=O)c3ccccc32)c2ccccc21 (centres undefined)
pIC50 (Ishikawa): 5.72
